According to patent publication EP0408294B1, “Use of an amylin antagonist for the manufacture of amedicament for the treatment of obesity and essential hypertension and related disorders” (AMYLIN PHARMACEUTICALS, INC., priority 1989, dated 1995):
Positions of bridges follow the written chain, without caps; N, C: chain ends. No end group written: not given here.

How the values were obtained:
[1] = tested on: isolated soleus muscle; experiment: amylin antagonist assay: incorporation of radiolabelled glucose into glycogen in isolated soleus muscle; format: cell-based, rats; settings: 1000µU/mL insulin, 20nM amylin
Description: In a further experiment we have shown that the […] CGRP 8-37 also functions as a partial amylin antagonist. Insulin was obtained as Humulin-R, 100U/mL, recombinant human insulin (Eli Lilly, Indianapolis, IN). Amylin, obtained as rat amylin (Bachem, Torrance, CA) and 8-37 human CGRP (Bachem, Torrance CA) were also used. An antagonist assay was performed in vitro using the isolated soleus muscle from rats. It measured the rate of incorporation of radiolabelled glucose into muscle glycogen as follows: (1) under hormone-free conditions (zero insulin, zero amylin, zero hCGRP₈₋₃₇ [antagonist]); (2) under conditions of stimulation of glycogen formation with insulin (1000µU/mL insulin, zero amylin, zero antagonist); (3) under conditions where the near maximal stimulation of glycogen formation has been inhibited with amylin (1000µU/mL insulin, 20nM amylin, zero antagonist); and, (4) under conditions where the suppression of glycogen formation by amylin has been disinhibited by an antagonist to the amylin action (1000µU/mL insulin, 20nM amylin, range of concentrations of antagonist [0, 1nM, 10nM, 100nM, 300nM, 1µM, 10µM]) There were therefore […] (conditions 1,2,3 and […] of condition 4). […]

[2] = tested on: normal rats; experiment: intravenous amylin bolus in normal rats; format: in vivo
Description: Similar results have been obtained using amylin. We have also shown that amylin acutely produces diabetes (fasting hyperglycemia greater than 140 mg/dL) when administered intravenously. Eight normal rats were injected with a 100µg bolus of amylin (rat amylin, Bachem, Torrance, CA). An intravenous amylin bolus produced a profound hyperglycemia to diabetic levels within 15-30 minutes (usually around 200 mg/dL). This hyperglycemia persists for several hours. The hyperglycemia is partly accounted for by an increase in hepatic (endogenous) glucose output and partly by an increased impediment in peripheral glucose disposal. […] There is an increase in respiratory quotient (RQ) after amylin only when somatostatin is absent and insulin is allowed to increase in response to hyperglycemia. During somatostatin infusion (no endogenous insulin release), there is no change in RQ, indicating no change from lipid to carbohydrate fuel usage in response to amylin in the fasted animal.

[3] = tested on: red skeletal muscle; experiment: glycogen synthesis in amylin-treated skeletal muscle in vitro; format: cell-based, rat; settings: insulin at the concentration necessary for half-maximal stimulation in non amylin-treated muscles
From the text: (§1) In muscles treated with amylin, there was no response to insulin at the concentration necessary for half-maximal stimulation in non amylin-treated muscles. The effects of amylin were seen even in the presence of very low concentrations of insulin. Amylin produced a 30 percent reduction in the basal rate of glycogen synthesis in the presence of a basal concentration (1 µU/ml) of insulin. In marked contrast, amylin had no effect on either the basal or the insulin-stimulated rates of formation of CO₂ or triacyglycerol in isolated adipocytes. The effect of amylin treatment in muscle could only be overcome by increasing the concentration of insulin to the supra-physiological level of 1000 uU/ml.
(§2) • Figure 1 indicates the effect of amylin on the insulin-stimulated fate of glucose uptake in isolated incubated skeletal muscles of the rat. • Figure 2a indicates the effect of a CGRP infusion on glucose uptake in an anaesthetised rat under conditions of hyperinsulinaemic, euglycaemic glucose clamp, in which insulin alone was initially infused, following by insulin and CGRP. Similar results have been obtained with an infusion of amylin. • Figure 2b indicates the effect of an infusion of CGRP in an anaesthetised rat under conditions of hyperinsulinaemic, euglycaemic clamp, in which insulin and CGRP were initially infused together, followed by cessation of the CGRP infusion. […]

[4] = tested on: isolated adipocytes; experiment: formation of CO₂ or triacyglycerol in isolated adipocytes; format: cell-based
From the text: as §1
Amylin acts by reducing both basal and insulin-induced uptake of glucose into skeletal muscle, especially by reducing the rate of incorporation of glucose into glycogen, and also by reducing the rate of glucose uptake into muscle cells (Molina, M. et al., Science 1989; submitted). […] We have concluded that amylin causes the insulin-resistance in type 2 diabetes, probably in conjunction with CGRP and/or CGRP receptors.

[5] = tested on: anaesthetised rats; experiment: hyperinsulinemic, euglycemic glucose clamp with CGRP infusion; format: in vivo, rat
Description: as §2, with “infusion. Similar results have been obtained with an infusion of amylin. • Figure 3 indicates the effect of CGRP on hepatic glucose output in anaesthetised rats, under conditions of hyperinsulinaemic, euglycaemic glucose clamp. Error bars give standard error of the mean. • Figure 4 indicates the effect of CGRP on insulin-stimulated glucose uptake in isolated BC3H-1 myocytes. • Figure 5 indicates the relationship between maximal insulin resistance, as measured by maximal insulin-stimulatable glucose disposal, and levels of serum CGRP-like immunoreactivity in the blood of a group of insulin-resistant type 2 diabetic human patients.” for “infusion.”

With “CGRP₈₋₃₇: 8-37 human CGRP (Bachem), sub-peptide of CGRP, partial amylin antagonist” the “increment in the rate of glycogen synthesis from the amylin-inhibited level” value ([1]; antagonist 1nM to 10µM, maximal increment) was “about 115%” and the EC50 ([1]; 4-parameter logistic fit, read-out: EC₅₀ for disinhibition (half maximal concentration)) was 1.2 nM.

“amylin: 37-amino acid peptide hormone from islet amyloid, Cys 2-7 disulfide bridge, amidated; rat amylin from Bachem used in tests (KCNTATCATQRLANFLVRSSNNLGPVLPPTNVGSNTY-NH2; disulfide 2-7; UniProt P12969 38-74, looked up)” was tested, and the persistence of hyperglycemia ([2]; 100µg intravenous bolus of rat amylin) was “several hours”, the “hyperglycemia (glucose level reached)” value ([2]; 100µg intravenous bolus of rat amylin, eight normal rats) was “around 200 mg/dL” and the “respiratory quotient (RQ)” value ([2]; after amylin, somatostatin absent, insulin allowed to increase in response to hyperglycemia) was “increase”. For the same substance, the plasma lactate ([2]; after intravenous amylin bolus) was “transient increase”, the “respiratory quotient (RQ)” value ([2]; during somatostatin infusion (no endogenous insulin release), fasted animal) was “no change” and the “response to insulin in muscles treated with amylin” value [3] was “no response”. The “effect on basal or insulin-stimulated rates of formation of CO₂ or triacyglycerol” value [4] was “no effect”.

CGRP was tested, and the “glucose infusion rate, new steady state” value ([5]; Figure 2A protocol, CGRP 0.02 ug/kg/min from 80-150 minutes during constant insulin infusion 1.8 mU/kg/min) was 18.0 ± 0.1 mg/kg/min and the “rise of glucose disposal rate (GDR) over basal” value ([5]; Figure 2B protocol, 3H-glucose, last 20 mins of period, CGRP = CGRP plus insulin, insulin = insulin alone, basal GDR 11.2 ± 0.7) was 7.4 ± 1.6 mg/kg/min.
